Reference: PMC3744471, “Mitochondria Are the Target Organelle of Differentiation-Inducing Factor-3, an Anti-Tumor Agent Isolated from Dictyostelium Discoideum” (PLoS ONE, 2013)
Where two headings read alike, the source gives them in different places.

How the values were obtained:
HeLa cells = test: Cell growth assay (Alamar blue), HeLa; assay type: cell-based, human
Method: HeLa, LM8, and 3T3-L1 cells were cultured for 3 days at 2.5–5×10^3 cells/well in 12-well plates with each well filled with 1 ml of DMEM-FBS (for HeLa and 3T3-L1) or MEM-α-FBS (for LM8) together with drugs at various concentrations. Then, the incubation media were discarded and the cells were washed with 1 ml of PBS(–) (20 mM phosphate buffered saline, pH 7.4) and incubated with 1 ml of fresh DMEM-FBS (HeLa and 3T3-L1) or MEM-α-FBS (LM8) containing 5% (v/v) of Alamar blue (a cell number indicator; Wako Pure Chemical Industries, Osaka, Japan) until the color changed. […] Relative cell numbers were determined for each concentration for each drug and the IC50 was determined from the dose-response curves.

LM8 cells = test: Cell growth assay (Alamar blue), LM8; assay type: cell-based, mouse; settings: Mus musculus, 72 h; LM8 cells, 3 days, Alamar blue
Method: (§1) HeLa, LM8, and 3T3-L1 cells were cultured for 3 days at 2.5–5×10^3 cells/well in 12-well plates with each well filled with 1 ml of DMEM-FBS (for HeLa and 3T3-L1) or MEM-α-FBS (for LM8) together with drugs at various concentrations. Then, the incubation media were discarded and the cells were washed with 1 ml of PBS(–) (20 mM phosphate buffered saline, pH 7.4) and incubated with 1 ml of fresh DMEM-FBS (HeLa and 3T3-L1) or MEM-α-FBS (LM8) containing 5% (v/v) of Alamar blue (a cell number indicator; Wako Pure Chemical Industries, Osaka, Japan) until the color changed. The relative cell number was assessed by measuring absorbance at 570 nm (reference at 595 nm) as described previously, [14]; DIF-related compounds and BODIPY-conjugated compounds hardly disturbed the cell number assessment with Alamar blue (data not shown), probably because the additive compounds were washed out when cell number was assessed. For determination of the 50% inhibitory concentration (IC50) of each drug, the cells were cultured for 3 days in the presence of each drug at various concentrations. Relative cell numbers were determined for each concentration for each drug and the IC50 was determined from the dose-response curves.
(§2) Supplementary file pone.0072118.s001.tif: Figure S1 Effects of BODIPY-DIF-3 and CCCP on cell growth, and cellular localization of BODIPY-DIF-3 in LM8 cells. (A) Cells were incubated for 4 days with 5–20 µM of BODIPY-DIF-3 (closed circles) or 2–10 µM of CCCP (closed triangles), and relative cell number was assessed by the use of Alamar blue. Data are the mean values and SD (bars) of three independent experiments. (B) Cells were incubated for 0.5 h or 3 days with 20 µM of BODIPY-DIF-3, washed free of the additive, and observed microscopically. (C) Cells were incubated for 0.5 h with BODIPY-DIF-3 (20 µM), Hoechst (0.1 µg/ml), and MitoTracker (0.1 µM), washed free of the additives, and observed by using a high-magnification fluorescence microscope. (D) Cells were incubated for 3 days with BODIPY-DIF-3 (20 µM) and then for 0.5 h with Hoechst (0.1 µg/ml) and MitoTracker (0.1 µM). Cells were washed free of the additives and observed by using a high-magnification fluorescence microscope. (TIF) Click here for additional data file.

3T3-L1 cells = test: Cell growth assay (Alamar blue), 3T3-L1; assay type: cell-based, mouse; settings: Mus musculus, 72 h; 3T3-L1 cells, 3 days, Alamar blue
Method: as §1
as §2, with “pone.0072118.s002.tif:” for “pone.0072118.s001.tif:”, “S2” for “S1”, “3T3-L1” for “LM8”

mouse liver mitochondria = test: Mitochondrial oxygen consumption (Clark-type oxygen electrode); assay type: biochemical
Method: Mitochondria were isolated from mouse liver (ICR; 7–10 week-old females) by differential centrifugation as described previously. Cells were homogenized in a Potter glass homogenizer with H-Buffer (250 mM sucrose, 10 mM Tris-HCl pH 7.4), and centrifuged at 800g for 1 min at 4°C. The supernatant was centrifuged at 6,000g for 5 min, and the resulting pellet, the crude mitochondrial fraction, was suspended in H-Buffer. The suspension was layered over a discontinuous sucrose gradient consisting of 1.1 M and 1.6 M sucrose in a Tris buffer (10 mM Tris-HCl pH 7.4), and centrifuged for 3 h at 90,000g at 4°C. The interface was collected in Tris buffer and centrifuged at 6,000g for 5 min. The resulting pellets were suspended in Tris buffer and used for experiments after confirming the presence of the mitochondrial marker cytochrome c.
Mitochondrial oxygen consumption was determined using a Clark-type oxygen electrode (Strathkelvin Instruments Ltd., North Lanarkshire, Scotland) as described, [39]. The mitochondria-enriched fraction was incubated at 30°C in oxygen measurement buffer (225 mM mannitol, 75 mM sucrose, 10 mM KCl, 0.1 mM EDTA, 3 mM phosphate, 5 mM succinate, 5 mM glutamate, and 20 mM Tris-HCl pH 7.4) in the presence or absence of various concentrations of the DIF-like molecules or CCCP. After recording ‘State 4’ of the respiration reaction, an aliquot of ADP was added to a final concentration of 200 µM to induce ‘State 3’. The PC100 (100% promoting concentration) of each additive was defined as the drug concentration that doubled the basal rate of oxygen consumption during State 3, which was calculated from the dose-response plot for the rate of oxygen consumption (Figure 8).

[1] = tested on: mitochondrial respiration; design: method as in PMID 7777565; settings: in D. discoideum; read-out: IC50 for inhibition (uncoupling) of mitochondrial respiration; cited from earlier work
[2] = tested on: mitochondrial malate dehydrogenase (mMDH); design: method as in PMID 20173310; settings: cited from earlier work
[3] = tested on: calmodulin-dependent cyclic nucleotide phosphodiesterase (PDE1); design: method as in PMID 15059913; settings: cited from earlier work
[4] = tested on: cyclin D1 and cyclin D3 in HeLa cells; test: Western blotting of cyclin D expression; assay type: cell-based, human; settings: 20 h, DIF-3 20 µM, Bu-DIF-3 5–7.5 µM, BODIPY-DIF-3 20 µM, CCCP 10 µM, azide 0.01%
Method: HeLa cells were incubated for 20 h with 1 ml of DMEM-FBS containing the indicated additives in 12-well plates (2–4×10^5 cells/well), washed twice with PBS(–), harvested by adding 100–200 µl of an SDS-sample buffer solution (in proportion to cell density: relative cell number), sonicated (heated), and used for SDS-PAGE. Western blot transfer and immunoblotting were performed as described previously, by using a primary antibody for cyclin D1, cyclin D2, cyclin D3, or GAPDH, and a second antibody, an alkaline phosphatase-conjugated anti-mouse or anti-rabbit IgG antibody. […] Visualized protein bands were then digitized and quantified by using Adobe Photoshop CS4 (version 11.0) (Adobe, San Jose, CA, USA) and ImageJ Software (version 1.4) (http://rsb.info.nih.gov/ij/).

SMILES: CCCCNC(=O)CCC1=[N+]2C(=Cc3c(C)cc(C)n3[B-]2(F)F)C=C1 [Bu-BODIPY]
- Effect on cell growth (relative cell number) (HeLa cells; HeLa, 5–20 µM (Bu-BODIPY up to 20 µM), 3 days): hardly affected
- IC50 (HeLa cells; Homo sapiens, 72 h, HeLa cells, 3 days, Alamar blue): > 20 µM
- IC50 (LM8 cells): > 20 µM
- IC50 (3T3-L1 cells): > 20 µM
- Effect on basal rate of O2 consumption (mouse liver mitochondria; 1–100 µM): had no effect
- PC100 (µM) for Mito. O2 consumption (mouse liver mitochondria; 100% promoting concentration: doubles the basal rate of oxygen consumption, 30°C): >100 µM

SMILES: CCCCCC(=O)c1c(O)c(Cl)c(OC)c(Cl)c1O [DIF-1, 1-(3,5-dichloro-2,6-dihydroxy-4-methoxyphenyl)hexan-1-one, reference compound]
- Effect on cell growth (relative cell number) (HeLa cells; HeLa, 20 µM, 3 days): significantly suppressed
- IC50 [1]: 0.54 µM
- Binding to and inhibition of mMDH [2]: binds to mitochondrial malate dehydrogenase (mMDH) and inhibits its activity
- Inhibition of PDE1 [3]: direct inhibitors of PDE1

SMILES: [N-]=[N+]=[N-].[Na+] [azide, NaN3, reference compound]
- Effect on cell growth (relative cell number) (HeLa cells): suppressed cell growth
- Expression of cyclin D1 [4]: suppressed
- Expression of cyclin D3 [4]: but not of cyclin D3
